System: HPV-31 specific RNA in HPV-31-infected CIN612 9E keratinocytes
Assay: Long-term study, HPV-31 specific RNA (Northern Blot)
Type: cell-based, human papilloma virus
Procedure: HPV-31 infected cells (3×10^6) were dispensed into 14.5 cm dishes containing fresh E medium and 1×10^6 cells of mitomycin C-treated 3T3 fibroblast feeders. The dishes were incubated in a CO2 incubator under 5% CO2 at 37° C. in 100% humidity. Human A431 epithelial cancer cells were used as HPV-uninfected negative controls. After 6 hr incubation, the cell culture medium was removed and fresh E medium containing 0.85 g/L NaHCO3 and a test compound at concentrations of 10 and 3.3 μg/mL, or control (interferon γ at 200 IU/mL) were added. For each concentration, 4 dishes were prepared. The dishes were incubated at 37° C. in a CO2 incubator. The culture medium was replaced to new E medium containing each concentration of the test compound or control in every 72 hrs. After seven days, or when untreated cells became confluent, one dish of each group was harvested for DNA/RNA extraction, followed by Southern/Northern Blot analysis; and one dish was trypsinized, cell number were determined and cells were seeded in three new dishes, treated and cultured as described above. This procedure was repeated for 9 passages. During these passages, morphology of cells and cell density were monitored.
Effect on HPV-31 specific DNA and RNA: DNA and RNA were analyzed in Southern and Northern Blot gels for HPV-31 specific sequences. X-ray films were scanned and optical densities of HPV-31 specific DNA and major mRNA species were integrated. Time curves were established by plotting integrated values against number of passages for each treatment dose. The T50 (time required to reduce the level to 50% of control) was determined from the time curves from crossing points of time curves with a line parallel to the x-axis corresponding to 50% of integrals of untreated control sample.

S=C(S)OC1CC2CC1C1CCCC21 (single isomer, unassigned; (-)) [(−)-Enantiomer 1A, (−)-O-exo/C-exo-tricyclo[5.2.1.0^2,6]-dec-9-yl-xanthic acid]
T50 RNA (3.3 μg/mL): 3.28 passages | HPV-31 specific RNA content (3.3 μg/mL or 10 μg/mL): continuous reductions | T50 RNA (10 μg/mL, listed as (−)-enantiomer 1A): < 1 passages | T50 RNA (10 μg/mL, listed as Cmpd 1A): <1 passages | mrna remaining at 10 µg/mL (Homo sapiens, Keratinocyte, 10 μg/mL, after 9 passages, read-out: viral RNA remaining): < 1%
